In publication PMC11432330, “Novel Drug-like HsrA Inhibitors Exhibit Potent Narrow-Spectrum Antimicrobial Activities against Helicobacter pylori” (International Journal of Molecular Sciences, 2024):
In brackets after ≈: the same amount, converted by molar mass. Like-named read-outs stand apart in the source and are kept apart here.

Assays:
[1] = test system: H. pylori strain ATCC 700392; test: Time-kill kinetic assay; type: cell-based, Helicobacter pylori; conditions: 4 × MIC, 10^4 CFU/mL
Experimental: Time-kill kinetics of selected HsrA inhibitors were carried out as previously described, with slight modifications. Briefly, fresh grown cells of H. pylori strain ATCC 700392 were resuspended in BHI + FBS at 1.0 × 10^4 CFU/mL and exposed to 4 × MIC of each compound. Bacteria exposed to DMSO (vehicle) instead of the HsrA inhibitors were included as a control. All cultures were incubated at 37 °C under microaerobic conditions, and aliquots were taken after 0, 2, 4, 8, and 24 h of exposure for CFU determination. Experiments were performed twice in triplicate. Results were presented as log10 CFU/mL versus hours of exposure. Differences in H. pylori survival were subjected to statistical analysis by using the Mann–Whitney U test.

H. pylori HsrA = test: Fluorescence-based thermal shift assay (HTS of Maybridge HitFinder library) for HsrA ligands; type: binding, Helicobacter pylori; conditions: 10 µM HsrA, 250 μM compound, vs DMSO controls
Experimental: High-throughput screening (HTS) of the Maybridge HitFinder^TM chemical library for H. pylori HsrA ligands was assessed by a fluorescence-based thermal shift assay, according to previously described procedures. Briefly, a reaction mixture containing 50 mM Tris-HCl (pH 8), 150 mM NaCl, 10% glycerol, 5 mM DTT, SYPRO® Orange ready-to-use fluorescent stain (Thermo Fisher Scientific) at a final concentration of 10 ×, and 10 µM HsrA was freshly prepared. Next, 90 μL was dispensed in every well of V-shape 96-well plates ABgene^TM Thermo-Fast^TM 96 (Thermo Fisher Scientific). Wells of columns 1 and 12 received 10 μL of DMSO (vehicle) and were used as the reference controls. The rest of the wells (columns 2 to 11) received 2.5 μL of four different compounds from the HitFinder library (250 μM as final concentration each). The unfolding curve corresponding to each well was registered from 25 °C to 75 °C in 1 °C steps using an Mx3005P™ qPCR System (Agilent Technologies, Inc., Santa Clara, CA, USA), and analyzed by Origin 7.0 (OriginLab, Northampton, MA, USA) using a homemade script that determined the midpoint temperature of unfolding (Tm).

C. jejuni ATCC 33560 = test: MIC/MBC, broth microdilution; type: cell-based; conditions: Campylobacter jejuni, ATCC33560, C. jejuni ATCC 33560
Experimental: (§1) The antimicrobial activity of the HsrA inhibitors was evaluated by the determination of the minimal inhibitory concentration (MIC) against four different strains of H. pylori: ATCC 700392 (aka 26695), ATCC 43504 (MTZ-resistant reference strain), ATCC 700684 (CLR-resistant reference strain), and Donostia 2 (LVX-resistant clinical isolate). The MICs were determined by the broth microdilution method, as previously described. Briefly, H. pylori strains were grown in blood agar at 37 °C for 72 h under microaerobic conditions. Fresh inoculums adjusted at OD600 = 0.01 [~10^6 colony forming units (CFU) per mL] in BHI broth supplemented with 4% fetal bovine serum (BHI + FBS) were prepared and immediately exposed to final concentrations between 64 and 0.031 mg/L of each compound of interest. The compound solvent (DMSO) as well as conventional antibiotics (MTZ, CLR, LVX) were included as controls. […] Each experiment was performed twice in triplicate. The MIC and MBC values of the selected compounds against C. jejuni ATCC 33560 were determined by using the same method and culture conditions described for the H. pylori strains.

S. aureus ATCC 29213 = test: MIC/MBC according to EUCAST guidelines; type: cell-based; conditions: Staphylococcus aureus, ATCC29213
Experimental: The antimicrobial activities of the selected compounds against several Gram-negative and Gran-positive representative species of normal human microbiota were determined according to the EUCAST guidelines. Briefly, standardized inoculums (0.5 McFarland) were freshly prepared from overnight Mueller–Hinton agar plates of reference strains E. coli ATCC 25922, K. pneumonia ATCC 700603, E. faecalis ATCC 29212, S. aureus ATCC 29213, S. epidermidis ATCC 12228, and S. agalactiae ATCC 12386. Next, bacterial suspensions adjusted to 5 × 10^5 CFU/mL in Mueller–Hinton broth were exposed to a range of concentrations from 64 to 0.031 mg/L of the selected compounds. DMSO and conventional antibiotics LVX and AMP were included as controls. […] Experiments were performed twice in triplicate.

[2] = test system: H. pylori ATCC 700684 (CLR-R); test: MIC/MBC, broth microdilution; type: cell-based, Helicobacter pylori; conditions: Helicobacter pylori; for MBC: ATCC700684, read-out: MBC; for MIC: ATCC700684, read-out: MIC
Experimental: as §1

[3] = test system: H. pylori Donostia 2 (LVX-R); test: MIC/MBC, broth microdilution; type: cell-based, Helicobacter pylori; conditions: Helicobacter pylori
Experimental: as §1

[4] = test system: H. pylori ATCC 700392 (26695); test: MIC/MBC, broth microdilution; type: cell-based, Helicobacter pylori; conditions: Helicobacter pylori, ATCC700392
Experimental: as §1

[5] = test system: H. pylori ATCC 43504 (MTZ-R); test: MIC/MBC, broth microdilution; type: cell-based, Helicobacter pylori; conditions: Helicobacter pylori, ATCC43504
Experimental: as §1

H. pylori ATCC 700392 = test: Checkerboard assay with first-line antibiotics; type: cell-based, Helicobacter pylori
Experimental: Potential synergisms between the selected HsrA inhibitors and first-line antibiotics were evaluated by using checkerboard assays, as previous described. Briefly, the antimicrobials to be tested were twofold serially diluted in BHI + FBS using independent sterile microtiter plates. Then, concentration gradients from two antimicrobials were aseptically mixed at equal volumes in a new microtiter plate, resulting in a matrix of 77 unique combinations of both compounds. Next, freshly prepared inoculum of H. pylori ATCC 700392 adjusted at 2 × 10^6 CFU/mL in BHI+ FBS were added to all wells, and plates were incubated for 72 h at 37 °C under microaerophilic conditions. […] The fractional inhibitory concentration index (FICI) for each antimicrobial combination was calculated as previously described. Values of FICI ≤ 0.5, 0.5 < FICI ≤ 1, 1 < FICI ≤ 4, and FICI > 4 were considered as indicative of synergistic, additive, neutral, or antagonist interactions, respectively.

[6] = H. pylori Donostia 2 (LVX-R), read-out: MBC
[7] = H. pylori Donostia 2 (LVX-R), read-out: MIC
[8] = H. pylori ATCC 700392 (26695), read-out: MBC
[9] = H. pylori ATCC 700392 (26695), read-out: MIC
[10] = H. pylori ATCC 43504 (MTZ-R), read-out: MBC
[11] = H. pylori ATCC 43504 (MTZ-R), read-out: MIC
[12] = in combination with CLR (clarithromycin)
[13] = in combination with LVX (levofloxacin)
[14] = in combination with MTZ (metronidazole)

SMILES | Exposure time after which 10^4 H. pylori cells were completely killed [1] [h] | MBC (C. jejuni ATCC 33560) [µg/mL] | MIC (C. jejuni ATCC 33560) [µg/mL] | MBC (S. aureus ATCC 29213) [µg/mL] | MIC (S. aureus ATCC 29213) [µg/mL] | MBC [2] [µg/mL] | MIC [2] [µg/mL] | MBC [3, 6] [µg/mL] | MIC [3, 7] [µg/mL] | MBC [4, 8] [µg/mL] | MIC [4, 9] [µg/mL] | FICI (H. pylori ATCC 700392; [12]) | FICantibiotic (H. pylori ATCC 700392; [12]) | FICinhibitor (H. pylori ATCC 700392; [12]) | FICI (H. pylori ATCC 700392; [13]) | FICantibiotic (H. pylori ATCC 700392; [13]) | FICinhibitor (H. pylori ATCC 700392; [13]) | FICI (H. pylori ATCC 700392; [14]) | FICantibiotic (H. pylori ATCC 700392; [14]) | FICinhibitor (H. pylori ATCC 700392; [14]) | further results
CSc1cccc(NC(=S)NCCNc2c([N+](=O)[O-])cc(C(F)(F)F)cc2[N+](=O)[O-])c1 [Ligand IV] | 4 | > 64 | 64 (≈ 135 µM) | > 64 | > 64 | 4 (≈ 8.41 µM) | 4 (≈ 8.41 µM) | 4 (≈ 8.41 µM) | 4 (≈ 8.41 µM) | 4 (≈ 8.41 µM) | 2 (≈ 4.21 µM) | 2 | 1 | 1 | 2 | 1 | 1 | 2 | 1 | 1 | ΔTm (upshift of midpoint temperature of unfolding of HsrA) (H. pylori HsrA): 16 °C; MBC [5, 10]: 4 µg/mL (≈ 8.41 µM); MIC [5, 11]: 2 µg/mL (≈ 4.21 µM)
N#C/C(=C\C=C\c1ccccc1)c1nc2ccccc2[nH]1 [Ligand XII] | 4 | > 64 | 64 (≈ 236 µM) | > 64 | > 64 | 0.5 (≈ 1.84 µM) | 0.5 (≈ 1.84 µM) | 1 (≈ 3.69 µM) | 1 (≈ 3.69 µM) | 2 (≈ 7.37 µM) | 2 (≈ 7.37 µM) | 0.75 | 0.25 | 0.5 | 1 | 0.5 | 0.5 | 0.5 | 0.25 | 0.25 | ΔTm (upshift of midpoint temperature of unfolding of HsrA) (H. pylori HsrA): 9 °C; MBC [5, 10]: 0.5 µg/mL (≈ 1.84 µM); MIC [5, 11]: 0.5 µg/mL (≈ 1.84 µM); Interaction (H. pylori ATCC 700392; [12]): Additive (additive (FICI > 0.5 to ≤1))
OC1(C(F)(F)F)CC(c2ccc3c(c2)Nc2ccccc2S3)=NN1 (stereo not drawn) [Ligand VIII] | 2 | 32 (≈ 91.1 µM) | 16 (≈ 45.5 µM) | 32 (≈ 91.1 µM) | 16 (≈ 45.5 µM) | 2 (≈ 5.69 µM) | 1 (≈ 2.85 µM) | 2 (≈ 5.69 µM) | 2 (≈ 5.69 µM) | 2 (≈ 5.69 µM) | 1 (≈ 2.85 µM) | 0.53 | 0.5 | 0.03 | 2 | 1 | 1 | 0.625 | 0.5 | 0.125 | MBC [5, 10]: 2 µg/mL (≈ 5.69 µM); MIC [5, 11]: 1 µg/mL (≈ 2.85 µM); Interaction (H. pylori ATCC 700392; [13]): Neutral (no interaction or neutral (FICI > 1 to ≤4))
NC(=NOC(=O)Nc1ccc(Cl)cc1)c1csc([N+](=O)[O-])c1 [Ligand V, N′-{[(4-chloroanilino)carbonyl]}oxy-5-nitrothiophene-3-carboximidamide] | 2 | ≤ 0.5 | ≤ 0.5 | > 64 | > 64 | 0.031 (≈ 0.091 µM) | 0.031 (≈ 0.091 µM) |  |  |  |  | 0.56 | 0.5 | 0.06 | 2 | 1 | 1 | 0.625 | 0.125 | 0.5 | MBC [3]: 0.125 µg/mL (≈ 0.367 µM); MIC [3]: 0.125 µg/mL (≈ 0.367 µM); MBC [4]: 0.125 µg/mL (≈ 0.367 µM); MIC [4]: 0.063 µg/mL (≈ 0.185 µM); MBC [5]: 0.125 µg/mL (≈ 0.367 µM); MIC [5]: 0.125 µg/mL (≈ 0.367 µM); Interaction (H. pylori ATCC 700392; [13]): Neutral (no interaction or neutral (FICI > 1 to ≤4))
CSc1cccc(Nc2nc(C(C)(C)C)cs2)c1 [Ligand XI] | 4 | > 64 | > 64 | 32 (≈ 115 µM) | 16 (≈ 57.5 µM) | 4 (≈ 14.4 µM) | 2 (≈ 7.18 µM) | 4 (≈ 14.4 µM) | 2 (≈ 7.18 µM) | 4 (≈ 14.4 µM) | 4 (≈ 14.4 µM) | 0.75 | 0.25 | 0.5 | 2 | 1 | 1 | 0.563 | 0.5 | 0.063 | MBC [5, 10]: 4 µg/mL (≈ 14.4 µM); MIC [5, 11]: 2 µg/mL (≈ 7.18 µM); Interaction (H. pylori ATCC 700392; [13]): Neutral (no interaction or neutral (FICI > 1 to ≤4))
N#Cc1cnn(-c2ccc(C(F)(F)F)cc2[N+](=O)[O-])c1N [Ligand I] | 8 | 32 (≈ 108 µM) | 32 (≈ 108 µM) | > 64 | > 64 | 4 (≈ 13.5 µM) | 4 (≈ 13.5 µM) | 2 (≈ 6.73 µM) | 2 (≈ 6.73 µM) | 4 (≈ 13.5 µM) | 4 (≈ 13.5 µM) | 2 | 1 | 1 | 2 | 1 | 1 | 0.625 | 0.125 | 0.5 | MBC [5, 10]: 1 µg/mL (≈ 3.36 µM); MIC [5, 11]: 1 µg/mL (≈ 3.36 µM); Interaction (H. pylori ATCC 700392; [12]): Neutral (no interaction or neutral (FICI > 1 to ≤4)); Interaction (H. pylori ATCC 700392; [13]): Neutral (no interaction or neutral (FICI > 1 to ≤4)); Interaction (H. pylori ATCC 700392; [14]): Additive (additive (FICI > 0.5 to ≤1))
